Test results: ChEMBL document CHEMBL1201862, “PubChem BioAssay data set” (2004)
Active and inactive are the calls of the source.

Key:
[1] = target: Eukaryotic translation initiation factor 4E (Mus musculus, UniProt P63073); experiment: blockers of eIF4G binding by eIF4E – biochemical, TR-FRET, dose response (AID 855); format: functional;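 also: potency for disrupting eIF4E binding to eIF4GI seen as loss of FRET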
Aspartyl aminopeptidase = Aspartyl aminopeptidase (Plasmodium falciparum 3D7, UniProt Q8I2J3)
[2] = viability loss in THP-1 monocytes – THP-1 cells, cytotoxicity control for Vif-APOBEC3G degradation inhibitor project, dose response (AID 1117359); format: functional; conditions: THP-1
[3] = target: T1, Runt-related transcription factor 1/Core-binding factor subunit beta (Homo sapiens, UniProt Q01196+Q13951); experiment: Confirmation of compounds inhibiting the binding between the RUNX1 Runt domain and CBFb-SMMHC via a time resolved fluorescence resonance energy transfer (TR-FRET) assay. [Related pubchem assays (depositor defined):AID1434, AID1438, AID1496, AID1560, AID1645]; format: protein assay
[4] = target: T1, Runt-related transcription factor 1/Core-binding factor subunit beta; experiment: disruptors of Runt domain/CBFb-SMMHC interaction – biochemical, FRET, Cerulean-Runt, Venus-CBFb-SMMHC, uHTS, […] (AID 1434); format: protein assay
[5] = target: T2, Polyadenylate-binding protein 1 (Homo sapiens, UniProt P11940); experiment: MLLE binding blockers, Cy5 peptide tracer – biochemical, fluorescence polarization, Cy5-PAM2 peptide, secondary, miRNA deadenylation inhibitor project, dose response (AID 602260); format: functional; conditions: read-out: IC50_Mean
[6] = target: Glucose-6-phosphate 1-dehydrogenase (Homo sapiens, UniProt P11413); experiment: inhibition of Homo sapiens G6PD, dose series – biochemical, fluorescence, selectivity assay for P. falciparum G6PD inhibitor project, dose response (AID 504792); format: functional
[7] = target: T3, Mannose-6-phosphate isomerase (Homo sapiens, UniProt P34949); experiment: MPI inhibition at elevated mannose 6-phosphate – biochemical, fluorescence intensity, high mannose 6-phosphate, primary screen (AID 1220)
T3 sequence (P34949 whole entry): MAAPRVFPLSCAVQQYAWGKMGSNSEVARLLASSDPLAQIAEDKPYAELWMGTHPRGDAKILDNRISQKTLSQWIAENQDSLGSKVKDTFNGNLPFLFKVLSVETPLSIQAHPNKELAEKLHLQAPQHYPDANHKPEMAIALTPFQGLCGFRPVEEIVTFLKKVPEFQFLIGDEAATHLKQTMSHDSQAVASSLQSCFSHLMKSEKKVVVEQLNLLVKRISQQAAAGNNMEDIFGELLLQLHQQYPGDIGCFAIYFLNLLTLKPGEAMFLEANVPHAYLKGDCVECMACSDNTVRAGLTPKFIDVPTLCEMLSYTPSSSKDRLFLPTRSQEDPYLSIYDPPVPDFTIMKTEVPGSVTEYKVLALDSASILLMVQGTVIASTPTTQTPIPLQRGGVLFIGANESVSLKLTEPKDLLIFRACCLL

[8] = target: T1, Runt-related transcription factor 1/Core-binding factor subunit beta; experiment: Confirmation of compounds inhibiting the binding between the RUNX1 Runt domain and CBFb-SMMHC via a fluorescence resonance energy transfer (FRET) assay. [Related pubchem assays (depositor defined):AID1434, AID1438, AID1496, AID1550, AID1645]; format: protein assay
Procathepsin L = Procathepsin L (Homo sapiens, UniProt P07711)
[9] = target: T2, Polyadenylate-binding protein 1; experiment: MLLE domain peptide-binding blockers, IC50 – biochemical, fluorescence polarization, FITC-PAM2 peptide, dose response (AID 602259); format: functional; conditions: read-out: IC50_Mean
[10] = target: Induced myeloid leukemia cell differentiation protein Mcl-1 (Homo sapiens, UniProt Q07820); format: functional
Nonstructural protein 1 = Nonstructural protein 1 (Influenza A virus, UniProt Q194T2); format: functional, Influenza A virus (A/California/07/2009(H1N1))
Bcl-2-related protein A1 = target: T4, Bcl-2-related protein A1 (Mus musculus, UniProt Q07440); format: functional;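 also: confirmatory dose–response counterscreen on Bfl-1, used to check hits from a UBC13 polyubiquitin inhibitor campaign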
T4 sequence (Q07440 whole entry): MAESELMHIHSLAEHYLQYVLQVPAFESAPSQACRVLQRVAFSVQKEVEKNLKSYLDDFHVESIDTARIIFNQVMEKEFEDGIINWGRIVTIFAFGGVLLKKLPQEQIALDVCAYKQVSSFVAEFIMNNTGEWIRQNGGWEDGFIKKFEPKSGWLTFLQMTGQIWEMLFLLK

[11] = Luminescence Cell-Based Dose Response HTS to Identify Inhibitors of 5'UTR Stem-Loop Driven Prion Protein mRNA Translation in H4 Neuroglioblastoma Cells. [Related pubchem assays: 1827 (Project Summary), 1813 (Primary HTS)]; format: functional
[12] = target: T5, Ubiquitin-conjugating enzyme E2 N (Homo sapiens, UniProt P61088); format: functional
T5 sequence (P61088 whole entry): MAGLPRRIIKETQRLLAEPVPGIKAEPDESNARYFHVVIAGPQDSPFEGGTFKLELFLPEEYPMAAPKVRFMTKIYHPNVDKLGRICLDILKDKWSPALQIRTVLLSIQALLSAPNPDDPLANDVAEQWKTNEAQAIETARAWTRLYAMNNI

[13] = luciferase reporter signal suppression in cells – H4 neuroglioma cells, luminescence, dose response (AID 1990); format: functional, cell-based
Streptococcus = experiment: GAS UMAA2166 growth inhibition – luminescence, BacTiterGlo, counter-screen for streptokinase expression inhibitor project, dose response (AID 1915); format: functional, organism-based;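 also: potency for reduction of bacterial viability or growth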
[14] = alpha-synuclein stem-loop luciferase translation blockers – H4 neuroglioma cells, luminescence, confirmation (AID 1988); format: functional, cell-based
[15] = target: T5, Ubiquitin-conjugating enzyme E2 N; format: functional; remark: listed apart in the source
[16] = test system: Streptococcus sp. 'group A'; experiment: Streptococcus pyogenes SK(-)GAS viability under kanamycin – luminescence, BacTiterGlo, confirmation, counter-screen for streptokinase expression inhibitor project, dose response (AID 1900); format: functional, organism-based
[17] = target: T6, Apoptotic protease-activating factor 1 (Homo sapiens, UniProt O14727); format: functional
T6 sequence (O14727 whole entry): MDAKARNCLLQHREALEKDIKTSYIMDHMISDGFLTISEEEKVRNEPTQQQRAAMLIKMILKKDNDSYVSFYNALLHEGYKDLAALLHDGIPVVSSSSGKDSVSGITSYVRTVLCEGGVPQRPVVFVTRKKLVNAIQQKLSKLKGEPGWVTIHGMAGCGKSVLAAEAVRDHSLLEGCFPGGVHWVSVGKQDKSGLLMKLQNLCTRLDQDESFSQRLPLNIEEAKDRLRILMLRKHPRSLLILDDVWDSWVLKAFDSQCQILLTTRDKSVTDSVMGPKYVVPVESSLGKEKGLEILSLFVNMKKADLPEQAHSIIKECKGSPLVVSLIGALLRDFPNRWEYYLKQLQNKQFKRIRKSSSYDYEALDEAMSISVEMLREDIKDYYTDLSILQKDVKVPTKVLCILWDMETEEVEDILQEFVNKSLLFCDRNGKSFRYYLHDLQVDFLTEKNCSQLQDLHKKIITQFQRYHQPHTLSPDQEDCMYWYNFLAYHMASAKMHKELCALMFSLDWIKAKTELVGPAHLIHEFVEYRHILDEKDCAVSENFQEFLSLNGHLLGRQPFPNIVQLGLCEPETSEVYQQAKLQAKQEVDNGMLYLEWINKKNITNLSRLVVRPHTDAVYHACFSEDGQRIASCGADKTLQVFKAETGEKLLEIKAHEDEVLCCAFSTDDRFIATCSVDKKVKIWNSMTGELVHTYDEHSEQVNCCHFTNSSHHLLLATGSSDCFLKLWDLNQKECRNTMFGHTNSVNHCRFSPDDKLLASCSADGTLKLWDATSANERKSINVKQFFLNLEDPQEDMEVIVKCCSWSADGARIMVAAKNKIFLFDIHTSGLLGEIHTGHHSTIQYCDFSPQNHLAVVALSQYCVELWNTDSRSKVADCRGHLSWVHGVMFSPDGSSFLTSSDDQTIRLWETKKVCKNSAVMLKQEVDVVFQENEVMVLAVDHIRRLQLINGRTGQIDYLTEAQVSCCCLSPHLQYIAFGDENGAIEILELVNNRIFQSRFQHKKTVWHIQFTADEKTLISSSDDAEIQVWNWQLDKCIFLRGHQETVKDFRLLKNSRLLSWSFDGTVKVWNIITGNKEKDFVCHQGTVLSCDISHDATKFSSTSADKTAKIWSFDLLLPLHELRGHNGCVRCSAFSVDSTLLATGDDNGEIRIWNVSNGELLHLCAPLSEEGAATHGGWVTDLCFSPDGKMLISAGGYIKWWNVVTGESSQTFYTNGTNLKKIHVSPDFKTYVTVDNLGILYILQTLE

[18] = A small molecule screen for inhibitors of the PhoP region in Salmonella typhi (5) using purified and synthesized compounds. [Related pubchem assays (depositor defined):AID1850, AID1864, AID1985, AID2252, AID2384, AID2612, AID2811, AID434995]; format: functional
Cannabinoid receptor 1 [19] = target: T7, Cannabinoid receptor 1 (Homo sapiens, UniProt P21554); experiment: SAR analysis of agonists of the Cannabinoid Receptor 1 using an Image-Based Assay - Set 4. [Related pubchem assays (depositor defined):AID2013, AID2026]; format: functional
Cannabinoid receptor 2 [20] = target: T8, Cannabinoid receptor 2 (Homo sapiens, UniProt P34972); experiment: SAR analysis of antagonists of the Cannabinoid Receptor 2 using an Image-Based Assay - Set 3. [Related pubchem assays (depositor defined):AID2013, AID2026]; format: functional
[21] = target: G-protein coupled receptor 55 (Homo sapiens, UniProt Q9Y2T6); experiment: SAR Analysis of Selective Antagonists of GPR55 using an Image-Based Assay - Set 4. [Related pubchem assays (depositor defined):AID2013, AID2026]; format: functional;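 also: antagonism of response to 5 µM lysophosphatidylinositol agonist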
Cannabinoid receptor 2 [22] = target: T8, Cannabinoid receptor 2; experiment: SAR analysis of agonists of the Cannabinoid Receptor 2 using an Image-Based Assay - Set 3. [Related pubchem assays (depositor defined):AID2013, AID2026]; format: functional
[23] = target: T9, G-protein coupled receptor 35 (Homo sapiens, UniProt Q9HC97); experiment: SAR analysis of Antagonists of the GPR35 Receptor using an Image-Based Assay - Set 6. [Related pubchem assays (depositor defined):AID2013, AID2026]; format: functional
[24] = target: T9, G-protein coupled receptor 35; experiment: SAR analysis of Agonists of the GPR35 Receptor using an Image-Based Assay - Set 4. [Related pubchem assays (depositor defined):AID2013, AID2026]; format: functional
Cannabinoid receptor 1 [25] = target: T7, Cannabinoid receptor 1; experiment: SAR analysis of antagonists of the Cannabinoid Receptor 1 using an Image-Based Assay - Set 4. [Related pubchem assays (depositor defined):AID2013, AID2026]; format: functional
[26] = target: Voltage-dependent T-type calcium channel subunit alpha-1H (Homo sapiens, UniProt O95180); experiment: human CACNA1H calcium influx blockade – cell-based, synthetic library set 2, HEK293 HH8, Fluo-4, SAR follow-up (AID 493023); format: functional

T1 sequence (Q01196 whole entry, the tested form may be a part): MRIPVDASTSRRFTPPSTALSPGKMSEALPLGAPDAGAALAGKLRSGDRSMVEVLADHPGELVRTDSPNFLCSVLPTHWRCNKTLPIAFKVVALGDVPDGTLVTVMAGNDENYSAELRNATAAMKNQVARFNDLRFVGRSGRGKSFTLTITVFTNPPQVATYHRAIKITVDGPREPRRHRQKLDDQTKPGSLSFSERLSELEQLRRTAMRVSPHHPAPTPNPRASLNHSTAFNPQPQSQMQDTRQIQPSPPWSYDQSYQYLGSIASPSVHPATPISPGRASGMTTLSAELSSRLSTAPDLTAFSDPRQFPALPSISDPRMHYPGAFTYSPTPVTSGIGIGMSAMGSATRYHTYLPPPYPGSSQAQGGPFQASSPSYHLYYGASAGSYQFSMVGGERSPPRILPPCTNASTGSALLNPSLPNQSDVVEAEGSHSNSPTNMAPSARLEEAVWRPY
T1 sequence (Q13951 whole entry, the tested form may be a part): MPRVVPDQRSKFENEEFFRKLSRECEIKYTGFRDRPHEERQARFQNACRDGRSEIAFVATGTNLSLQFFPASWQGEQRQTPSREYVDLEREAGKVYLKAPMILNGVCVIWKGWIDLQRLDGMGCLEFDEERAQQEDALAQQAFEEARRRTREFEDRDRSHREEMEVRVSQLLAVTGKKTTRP
T7 sequence (P21554 whole entry): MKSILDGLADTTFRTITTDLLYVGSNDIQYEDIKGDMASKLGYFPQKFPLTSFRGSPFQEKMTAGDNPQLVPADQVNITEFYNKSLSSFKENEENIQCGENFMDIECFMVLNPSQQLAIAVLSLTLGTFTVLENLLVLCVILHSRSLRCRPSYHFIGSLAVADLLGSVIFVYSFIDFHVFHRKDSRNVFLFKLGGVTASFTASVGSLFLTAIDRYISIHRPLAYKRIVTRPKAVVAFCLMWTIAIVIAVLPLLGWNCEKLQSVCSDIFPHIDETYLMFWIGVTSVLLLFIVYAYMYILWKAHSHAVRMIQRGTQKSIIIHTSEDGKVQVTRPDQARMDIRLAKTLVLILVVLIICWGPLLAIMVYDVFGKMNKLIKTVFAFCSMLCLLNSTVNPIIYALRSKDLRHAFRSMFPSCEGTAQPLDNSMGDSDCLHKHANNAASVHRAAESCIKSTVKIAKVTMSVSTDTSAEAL
T8 sequence (P34972 whole entry): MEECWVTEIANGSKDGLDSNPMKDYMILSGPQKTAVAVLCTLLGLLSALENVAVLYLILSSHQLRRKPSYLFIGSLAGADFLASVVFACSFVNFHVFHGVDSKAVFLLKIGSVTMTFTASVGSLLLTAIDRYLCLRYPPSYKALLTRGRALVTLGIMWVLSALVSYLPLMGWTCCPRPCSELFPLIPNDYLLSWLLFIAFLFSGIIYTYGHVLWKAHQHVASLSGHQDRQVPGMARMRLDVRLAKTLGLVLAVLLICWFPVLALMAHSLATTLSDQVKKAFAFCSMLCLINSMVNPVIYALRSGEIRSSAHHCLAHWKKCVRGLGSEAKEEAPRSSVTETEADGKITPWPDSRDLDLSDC
T9 sequence (Q9HC97 whole entry): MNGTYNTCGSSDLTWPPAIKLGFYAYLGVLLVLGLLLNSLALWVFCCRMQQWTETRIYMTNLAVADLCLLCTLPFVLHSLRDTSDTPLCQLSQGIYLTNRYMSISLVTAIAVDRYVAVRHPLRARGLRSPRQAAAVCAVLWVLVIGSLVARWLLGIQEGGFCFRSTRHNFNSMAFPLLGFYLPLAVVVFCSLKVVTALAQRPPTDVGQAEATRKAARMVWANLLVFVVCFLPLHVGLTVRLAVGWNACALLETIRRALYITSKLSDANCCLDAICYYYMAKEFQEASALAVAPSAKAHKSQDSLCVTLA
T2 sequence (P11940 whole entry): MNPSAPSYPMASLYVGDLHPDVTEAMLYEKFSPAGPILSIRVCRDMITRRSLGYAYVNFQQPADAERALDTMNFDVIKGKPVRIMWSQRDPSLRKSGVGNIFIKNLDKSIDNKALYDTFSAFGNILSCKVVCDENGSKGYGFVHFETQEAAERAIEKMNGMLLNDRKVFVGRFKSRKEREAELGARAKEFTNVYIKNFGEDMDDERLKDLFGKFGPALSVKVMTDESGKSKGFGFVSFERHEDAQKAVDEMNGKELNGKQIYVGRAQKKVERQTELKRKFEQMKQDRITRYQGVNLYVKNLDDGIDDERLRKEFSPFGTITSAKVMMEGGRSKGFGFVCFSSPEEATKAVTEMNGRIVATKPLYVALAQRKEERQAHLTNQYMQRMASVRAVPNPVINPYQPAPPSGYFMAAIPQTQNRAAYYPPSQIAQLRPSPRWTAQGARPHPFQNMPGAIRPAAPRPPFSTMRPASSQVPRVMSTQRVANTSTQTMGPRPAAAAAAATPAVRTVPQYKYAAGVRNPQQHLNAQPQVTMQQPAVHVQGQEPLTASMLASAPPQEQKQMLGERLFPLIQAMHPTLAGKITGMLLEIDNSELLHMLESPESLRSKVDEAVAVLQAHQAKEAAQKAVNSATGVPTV
Chain of Aspartyl aminopeptidase (Q8I2J3 whole entry): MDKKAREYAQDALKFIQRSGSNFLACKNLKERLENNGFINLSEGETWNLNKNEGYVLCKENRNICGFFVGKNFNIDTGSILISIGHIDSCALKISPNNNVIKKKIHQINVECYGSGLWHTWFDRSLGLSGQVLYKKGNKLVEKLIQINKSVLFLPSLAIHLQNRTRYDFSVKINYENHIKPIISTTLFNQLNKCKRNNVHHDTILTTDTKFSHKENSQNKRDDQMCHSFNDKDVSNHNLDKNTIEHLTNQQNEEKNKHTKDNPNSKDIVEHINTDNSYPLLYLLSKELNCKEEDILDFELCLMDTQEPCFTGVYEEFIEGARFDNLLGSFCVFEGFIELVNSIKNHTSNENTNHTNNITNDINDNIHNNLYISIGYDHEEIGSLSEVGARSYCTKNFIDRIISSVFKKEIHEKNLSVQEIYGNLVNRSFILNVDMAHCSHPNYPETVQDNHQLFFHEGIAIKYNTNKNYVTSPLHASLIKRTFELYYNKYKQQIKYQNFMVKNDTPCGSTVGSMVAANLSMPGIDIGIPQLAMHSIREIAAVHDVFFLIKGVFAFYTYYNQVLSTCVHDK
Chain of Eukaryotic translation initiation factor 4E (P63073 whole entry): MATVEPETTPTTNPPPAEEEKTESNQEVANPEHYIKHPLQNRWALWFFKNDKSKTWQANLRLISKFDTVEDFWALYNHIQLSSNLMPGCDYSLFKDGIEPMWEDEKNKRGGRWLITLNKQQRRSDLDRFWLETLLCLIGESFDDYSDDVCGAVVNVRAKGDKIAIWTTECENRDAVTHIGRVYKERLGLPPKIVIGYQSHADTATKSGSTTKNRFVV
Chain of Induced myeloid leukemia cell differentiation protein Mcl-1 (Q07820 whole entry): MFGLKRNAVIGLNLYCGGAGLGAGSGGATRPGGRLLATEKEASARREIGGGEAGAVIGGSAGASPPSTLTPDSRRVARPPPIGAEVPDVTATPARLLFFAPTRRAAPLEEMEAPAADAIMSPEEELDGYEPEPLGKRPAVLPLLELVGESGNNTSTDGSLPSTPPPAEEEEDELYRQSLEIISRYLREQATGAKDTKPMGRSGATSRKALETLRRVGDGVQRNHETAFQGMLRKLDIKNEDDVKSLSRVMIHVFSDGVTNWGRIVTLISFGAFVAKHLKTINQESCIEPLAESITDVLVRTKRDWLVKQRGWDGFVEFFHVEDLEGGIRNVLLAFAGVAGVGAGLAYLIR
Chain of Procathepsin L (P07711 whole entry, the tested form may be a part): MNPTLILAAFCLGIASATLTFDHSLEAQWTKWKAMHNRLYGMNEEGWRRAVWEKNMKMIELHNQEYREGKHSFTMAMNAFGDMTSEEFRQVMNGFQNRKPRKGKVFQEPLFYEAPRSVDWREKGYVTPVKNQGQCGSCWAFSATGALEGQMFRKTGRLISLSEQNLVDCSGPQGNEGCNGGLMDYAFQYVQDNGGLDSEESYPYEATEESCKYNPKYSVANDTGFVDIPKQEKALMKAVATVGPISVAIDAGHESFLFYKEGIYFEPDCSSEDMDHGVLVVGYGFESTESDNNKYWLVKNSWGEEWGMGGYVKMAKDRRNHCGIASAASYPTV
Chain of Glucose-6-phosphate 1-dehydrogenase (P11413 whole entry): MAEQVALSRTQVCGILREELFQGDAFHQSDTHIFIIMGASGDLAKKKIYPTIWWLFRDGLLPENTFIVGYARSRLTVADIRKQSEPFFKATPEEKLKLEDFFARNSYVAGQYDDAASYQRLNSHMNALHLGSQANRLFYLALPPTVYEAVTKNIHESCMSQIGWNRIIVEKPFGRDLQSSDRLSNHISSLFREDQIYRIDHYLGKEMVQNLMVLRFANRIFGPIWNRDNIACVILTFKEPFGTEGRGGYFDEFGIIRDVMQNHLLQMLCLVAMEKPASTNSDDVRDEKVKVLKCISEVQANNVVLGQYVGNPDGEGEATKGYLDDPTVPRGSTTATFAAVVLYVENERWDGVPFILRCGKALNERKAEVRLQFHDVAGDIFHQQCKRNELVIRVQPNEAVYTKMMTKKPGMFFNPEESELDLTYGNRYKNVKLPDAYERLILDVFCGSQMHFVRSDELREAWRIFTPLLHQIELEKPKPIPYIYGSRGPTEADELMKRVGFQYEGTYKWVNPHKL
Chain of Nonstructural protein 1 (Q194T2 whole entry): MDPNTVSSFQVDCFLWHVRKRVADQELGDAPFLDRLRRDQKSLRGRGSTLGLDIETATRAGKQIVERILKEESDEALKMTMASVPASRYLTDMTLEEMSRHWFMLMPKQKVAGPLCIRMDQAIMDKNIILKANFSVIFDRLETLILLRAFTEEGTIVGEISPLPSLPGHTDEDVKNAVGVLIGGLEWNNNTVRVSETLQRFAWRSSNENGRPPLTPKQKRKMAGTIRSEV

## CN1CCc2cccc3c2[C@@H]1Cc1ccc(O)c(O)c1-3
[1]
  IC50: > 64 µM (inactive)
Aspartyl aminopeptidase
  IC50: 3.1 µM (active)
[2]
  CC50: 15 µM (active)
[3]
  IC50: 17.8 µM (active)
[4]
  IC50: 7.12 µM (active)
[5]
  IC50: > 66 µM (inactive)
[6]
  IC50: 38.4 µM (inactive)
[7]
  IC50: 24.9 µM (active)
[8]
  IC50: 8.48 µM (active)
Procathepsin L
  IC50: > 59.6 µM (not active)
[9]
  IC50: > 66 µM (inactive)
[10]
  IC50: < 0.4 µM (active)

## N=C(N)N/N=C/c1ccc(OCc2ccccc2)c(OCc2ccccc2)c1
Nonstructural protein 1
  IC50: 49 µM (active)
Bcl-2-related protein A1
  IC50: 16 µM (active)
[11]
  EC50: > 120 µM (not active)
[12]
  IC50: 5.05 µM (active)
[13]
  EC50: 8.78 µM (active)
Streptococcus
  EC50: 8.86 µM (active)
[14]
  EC50: 19.9 µM (active)
[15]
  IC50: 6.15 µM (active)
[16]
  EC50: 5.75 µM (active)
[17]
  IC50: > 100 µM (inactive)

## O=C1C2=C(Nc3ccccc3SC2c2cccnc2)c2ccccc21 (stereo unspecified)
[18]
  IC50: > 150 µM (active)

## Cc1ccc2nc(-c3ccccn3)cc(C(=O)Nc3ccc(S(=O)(=O)N4CCOCC4)cc3)c2c1
Cannabinoid receptor 1 [19]
  EC50: > 32 µM (inactive)
Cannabinoid receptor 2 [20]
  IC50: > 32 µM (inactive)
[21]
  IC50: > 32 µM (inactive)
Cannabinoid receptor 2 [22]
  EC50: > 32 µM (inactive)
[23]
  IC50: > 32 µM (inactive)
[24]
  EC50: > 32 µM (inactive)
Cannabinoid receptor 1 [25]
  IC50: 5.37 µM (active)

## O=C(NC[C@@H]1[C@H]2CN(Cc3ccccc3)C[C@@H]12)c1cc(Cl)cc(Cl)c1
[26]
  EC50: 1.5 µM (active)
